Patent EP2646421B1, “7-NITRO-5-PHENYL-1-(PYRROLIDIN-1-YLMETHYL)-1H-BENZO[E][1,4]DIAZEPIN-2(3H)-ONE AND OTHER BENZODIAZEPINE DERIVATIVES” (Pignataro, Giuseppe, priority 2010, dated 2012)
“Also recorded” adds a separate entry of the source.

Tests used:
NCX1 = target: T1, NCX1 (Canis lupus familiaris, UniProt P23685); assay: 45Ca2+ radiotracer fluxes (efflux/influx) in BHK-NCX1 cells; format: cell-based
T1 construct: expressed in transfected cells
Protocol: (§1) The activity of NCX was established by means of three different subclones of baby hamsted kidney (BHK) cells that were stably transfected with one of each NCX isoforms, named BHK-NCX1, BHK-NCX2 and BHK-NCX3. These cell lines were grown on plastic dishes in a mix of DMEM and Ham's F12 media (1:1) (Gibco, Invitrogen, MI, Italy) supplemented with 5% fetal bovine serum, 100 U/ml penicillin, and 100 µg/ml streptomycin (Sigma, St. Louis, Missouri, USA). Cells were cultured in a humidified 5% CO2 atmosphere and at the temperature of 37°C.
The activity of the Na^+/Ca^2+ exchanger was measured by means of ^45Ca^2+ radiotracer variations in the cytoplasm of cells exposed to a protocol stimulating the forward or the reverse mode of the antiporter. The BHK cells expressing each mutated or non-mutated NCX isoform were cultured in 12-well dishes and incubated in 145 mM NaCl for 10 minutes and then in a medium containing only 145 mM N-Methyl D-glucamine (NMDG) and 10 µM of ^45Ca^2+. This rapid substitution of the medium from a high level of Na^+ to another one without Na^+ allow the ^45Ca^2+ influx (reverse mode). Before the medium substitution cells was incubated with 1 mM ouabain, a Na^+/K^+ pump inhibitor, and 10 µM monensin, a ionophore for extracellular Na^+. After 30 seconds incubation, cells were washed with an ice-cold solution containing 2 mM La^3+ to stop ^45Ca^2+ uptake. The medium was removed and cells were subsequently lysed with 0.1 N NaOH and aliquots were taken to determine radioactivity and protein content.
In order to measure NCX activity in the forward mode, cells were firstly loaded with ^45Ca^2+ and subsequently exposed to a chemical protocol to stimulate the efflux of the radiotracer in the extracellular medium. In particular, cells were loaded with ^45Ca^2+ by using a solution containing 1 µM ionomycin, 145 mM Na^+ and ^45Ca^2+. Next, cells were exposed to a Ca^2+-free solution containing 2 mM EGTA. One µM thapsigargin, a Ca^2+-ATPase inhibitor, was present in both solutions in order to prevent ^45Ca^2+ influx in intracellular organelles. After 60 second, cells were lysed with […] NaOH and aliquots were taken to determine cytoplasmatic radioactivity.
Cells were incubated for 30 minutes with different neurounina-1 concentrations.

BHK cells = assay: Cell viability by fluorescein diacetate / propidium iodide staining; format: cell-based, hamster; details: 10 µM, 24 hours
From the text: Fluorescein diacetate (FDA) is an apolar ester that could cross plasmamembrane. […] The polar compound propidium-iodide (PI) can not cross an intact plasmamembrane, so this is a good marker of necrotic cells. Once PI enters into the cell, this compound interact with nuclear DNA and give a fluorescent red light. Consequently, in the same cellular population, it is possible to discriminate live cells from dead cells, because the last group are PI-positive. In PI/PDA experiments, BHK cells were firstly treated with 10 µM neurounina-1 for 24 hours and then incubated for 3 minutes, at 22°C, in a PBS solution containing fluorescein diacetate (FDA; Sigma) and propidium iodide (PI, Calbiochem, San Diego, CA, U.S.A.), at the concentrations of di 36 µM e 7 µM, respectively. At the end of the incubation, cells were washed with PBS and observed at the microscope.

NCX2 = target: T2, NCX2 (Rattus norvegicus, UniProt P48768); assay: Fura-2 AM single-cell microfluorimetry, BHK-NCX2 cells; format: cell-based; details: 10 nM (Fig. 2)
T2 construct: expressed in transfected cells
T2 sequence (P48768 21-921): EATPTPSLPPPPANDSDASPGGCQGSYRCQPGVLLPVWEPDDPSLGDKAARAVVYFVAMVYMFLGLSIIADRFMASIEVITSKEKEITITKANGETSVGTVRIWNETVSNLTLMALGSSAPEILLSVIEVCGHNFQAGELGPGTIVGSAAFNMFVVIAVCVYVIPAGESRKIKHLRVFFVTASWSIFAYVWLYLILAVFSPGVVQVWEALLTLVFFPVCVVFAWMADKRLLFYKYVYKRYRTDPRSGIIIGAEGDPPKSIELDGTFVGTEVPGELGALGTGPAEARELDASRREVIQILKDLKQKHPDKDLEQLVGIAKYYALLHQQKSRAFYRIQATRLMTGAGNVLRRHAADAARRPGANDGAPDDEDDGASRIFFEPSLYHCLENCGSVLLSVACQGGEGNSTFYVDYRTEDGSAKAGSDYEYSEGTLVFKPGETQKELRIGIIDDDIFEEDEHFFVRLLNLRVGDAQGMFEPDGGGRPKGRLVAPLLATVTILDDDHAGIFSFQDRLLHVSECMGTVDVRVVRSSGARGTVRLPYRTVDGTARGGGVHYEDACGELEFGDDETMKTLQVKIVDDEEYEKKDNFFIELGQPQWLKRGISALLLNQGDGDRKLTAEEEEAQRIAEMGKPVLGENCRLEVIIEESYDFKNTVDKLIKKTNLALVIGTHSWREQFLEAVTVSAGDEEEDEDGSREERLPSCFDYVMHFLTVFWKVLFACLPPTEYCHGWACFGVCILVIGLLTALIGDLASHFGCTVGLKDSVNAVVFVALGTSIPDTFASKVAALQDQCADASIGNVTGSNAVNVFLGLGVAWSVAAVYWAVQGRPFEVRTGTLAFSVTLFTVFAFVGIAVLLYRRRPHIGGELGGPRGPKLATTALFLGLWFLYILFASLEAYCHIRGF
Protocol: as §1
NCX activity has been measured considering the variation of intracellular concentrations of Ca^2+ ions ([Ca^2+]i) due to its activation by means of single-cell microfluorimetry. […] In both cases, this probe will produce an emission at 510 nm; the ratio between the two emission relative to 340 and 380 excitation allow to quantify [Ca^2+]i in the time considering the calibration curve previously performed. […]
Briefly, BHK cells wild type and/or BHK trasnsfected with NCX mutants, grown on glass coverslips, were loaded with Fura-2 acetoxymethyl ester (Fura-2AM) (10 µM) for 30 minutes at 37°C in normal Krebs solution containing the following (in mM): 5.5 KCI, 160 NaCl, 1.2 MgCl2, 1.5 CaCl2, 10 glucose, and 10 Hepes-NaOH, pH 7.4. […] Fura-2 fluorescence intensity was measured every 3 seconds. […]

T1 sequence (P23685 33-970): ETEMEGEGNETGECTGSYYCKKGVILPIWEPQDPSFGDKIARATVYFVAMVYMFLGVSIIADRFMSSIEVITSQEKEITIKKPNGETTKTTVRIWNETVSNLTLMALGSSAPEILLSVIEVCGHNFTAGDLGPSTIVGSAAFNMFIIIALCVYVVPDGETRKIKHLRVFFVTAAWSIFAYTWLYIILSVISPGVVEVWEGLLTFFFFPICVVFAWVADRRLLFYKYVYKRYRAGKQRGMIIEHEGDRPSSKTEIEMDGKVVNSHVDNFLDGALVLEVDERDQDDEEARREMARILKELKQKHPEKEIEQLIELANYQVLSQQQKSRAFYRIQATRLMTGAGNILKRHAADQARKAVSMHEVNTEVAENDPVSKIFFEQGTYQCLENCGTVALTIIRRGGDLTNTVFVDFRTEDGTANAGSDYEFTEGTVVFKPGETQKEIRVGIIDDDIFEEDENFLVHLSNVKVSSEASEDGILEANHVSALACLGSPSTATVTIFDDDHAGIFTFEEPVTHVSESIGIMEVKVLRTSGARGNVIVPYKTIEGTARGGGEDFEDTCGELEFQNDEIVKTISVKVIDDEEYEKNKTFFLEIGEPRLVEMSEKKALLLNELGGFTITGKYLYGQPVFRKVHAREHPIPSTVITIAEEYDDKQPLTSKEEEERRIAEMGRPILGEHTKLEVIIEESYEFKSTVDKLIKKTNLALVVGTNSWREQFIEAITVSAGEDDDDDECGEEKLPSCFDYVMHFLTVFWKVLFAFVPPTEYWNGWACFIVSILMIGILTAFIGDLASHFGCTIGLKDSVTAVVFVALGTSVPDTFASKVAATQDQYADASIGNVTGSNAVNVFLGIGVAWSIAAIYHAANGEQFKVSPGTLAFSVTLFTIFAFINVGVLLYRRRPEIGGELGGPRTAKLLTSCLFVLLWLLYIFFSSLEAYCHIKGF

O=C1CN=C(c2ccccc2)c2cc([N+](=O)[O-])ccc2N1CN1CCCC1 [neurounina-1, 7-nitro-5-phenyl-1-(pyrrolidin-1-ylmethyl)-1H-benzo[e][1,4]diazepin-2(3H)-one]
increase of forward mode of NCX1 activity (NCX1; 45Ca2+ radiotracer, forward mode): 70%
increase of reverse mode NCX1 activity (NCX1; 45Ca2+ radiotracer, reverse mode): 40%
EC50 (NCX1; EC50 NCX1, reverse mode, 45Ca2+ radiotracer, reverse mode): 1.1 nM
EC50 (NCX1; EC50 for NCX1, forward mode, 45Ca2+ radiotracer, forward mode): 1.4 nM
EC50 (NCX1; EC50 su NCX1, from the functional assays (summary)): 1 to 2 nM
NCX1 activity (NCX1; forward and reverse mode, patch clamp, Fura-2 microfluorimetry and 45Ca2+ fluxes (summary)): increases, in a dose-dependent manner
cell viability (BHK cells): did not show any toxic effect; also recorded: did not affect
increased reverse mode activity of NCX2 (NCX2): 40%
